Measurements published in US9862746B2, “Compositions and methods relating to hindering DOT1L recruitment by MLL-fusion proteins” (The Regents of the University of Michigan, priority 2013, dated 2018).
Where a SMILES comes first, the peptide text is derived from it.

Columns and labels:
[1] = target: T1, GB1-AF9 (Homo sapiens, UniProt P42568); assay: FP competitive binding, displacement of Flu-DOT1L from GB1-AF9; details: read-out: IC50, competition with DOT1L 10-mer fluorescein-labeled peptide for AF9
T1 construct: the recombinant GB1-AF9 protein (residues 497-568); made in house; host or cells: Escherichia coli BL21 (DE3)
T1 sequence (P42568 497-568): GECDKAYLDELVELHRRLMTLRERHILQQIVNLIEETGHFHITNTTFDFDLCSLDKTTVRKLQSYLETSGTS
Experimental: AF4 (749-775) protein and several peptides (AF4 14 mer, un-labeled and biotin-labeled DOT1L 10 mer peptide) were tested for their ability to displace the Flu-DOT1L from GB1-AF9 protein. The dose-dependent binding experiments were carried out in 96-well plates with serial dilutions of tested protein or peptides, GB1-AF9 protein (500 nM) and Flu-DOT1L (10 nM) in the same assay buffer and final volume of 125 μL. The polarization values were measured after 3 h incubation. Negative controls containing GB1-AF9 protein and probe (equivalent to 0% inhibition), and positive controls containing only free Flu-DOT1L probe (equivalent to 100% inhibition), were included on each assay plate. IC50 values were determined by nonlinear regression fitting of the competition curves (GraphPad Prism 5.0).

[2] = target: T2, AF9 (Homo sapiens, UniProt P42568); assay: Solution competitive SPR assay of peptides, AF9-DOT1L interaction; format: binding; design: against AF9(497-568) and ENL (489-559) proteins running different tested concentrations over CM5 chip; GB1 (pGB1-LIC vector); made in house; host or cells: Escherichia coli BL21 (DE3); details: read-out: IC50 against AF9 (block PPI DOT1L/AF9)
T2 sequence (P42568 497-568): T1 sequence (P42568 497-568)
Experimental: (§1) Solution competitive SPR based assay was performed to determine the IC50 values of DOT1L peptides. […] Response units (RU) were measured at 15 seconds in the dissociation phase and the specific binding was calculated by subtracting the control surface (Fcl) signal from the surfaces with immobilized Mocr-DOT1L. IC50 values were determined by non-linear least squares analysis using Graph Pad Prism 5.0 software.

[3] = target: T3, ENL (Homo sapiens, UniProt Q03111); assay: Solution competitive SPR assay of peptides, ENL-DOT1L interaction; format: binding; details: read-out: IC50 against ENL (block PPI DOT1L/ENL)
T3 construct: against AF9(497-568) and ENL (489-559) proteins running different tested concentrations over CM5 chip; MBP (pMSCG9-LIC vector); made in house; host or cells: Escherichia coli BL21 (DE3)
T3 sequence (Q03111 489-559): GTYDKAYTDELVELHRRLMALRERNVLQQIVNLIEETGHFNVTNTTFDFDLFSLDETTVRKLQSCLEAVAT
Experimental: as §1

[4] = target: T2, AF9; assay: SPR competitive binding assay of small molecules, AF9-DOT1L; design: against AF9(497-568) and ENL (489-559) proteins running different tested concentrations over CM5 chip; GB1 (pGB1-LIC vector); made in house; host or cells: Escherichia coli BL21 (DE3); details: SPR competitive based assay; read-out: AF9 IC50 ± SD
Text: Several secondary assays have already been developed to support hit confirmation and the hit-to-probe optimization process. The established and optimized SPR-based competitive assay utilizing DOT1L protein (826-1095) immobilized on the CM5 sensor chip was used as a secondary counter screen assay to validate binding of compounds to AF9. […] Both assays gave similar IC50 values.
(§2) To further validate the binding of the confirmed compounds and identify potential promiscuous inhibitors, several secondary assays have been developed to support hit confirmation and the hit-to-probe optimization process. In order to determine that the compounds bind effectively to the target and disrupt protein-protein interaction, a SPR competitive binding assay was used. This assay uses a platform that differs from the FP-based assay where DOT1L recombinant protein (residues […]) is immobilized on a CM5 chip, allowing for testing of the inhibitors for their ability to disrupt AF9-DOT1L protein-protein interactions.

[5] = Microsomal stability in mouse liver microsome; format: in vitro ADME; details: with NADPH
Experimental: For optimization of this class of inhibitors besides testing their binding affinity, the physico-chemical properties and microsomal stability will be tested in order to obtain improvement at multiple levels, as necessary for fully optimized compounds. To obtain initial information about the stability of this chemical class of compounds, compounds 42 and 48 have been tested in microsomal stability using mouse liver microsome. […] If their structure is analyzed, the major difference between these two compounds is the R2 substituent, furan vs. thiophen.

[6] = target: T3, ENL; assay: SPR competitive binding assay of small molecules, ENL; details: SPR competitive based assay; read-out: ENL IC50 ± SD
Text: as §2
This class of compounds was also tested for their binding against ENL protein, which is highly homologous with AF9.

[7] = target: T4, DOT1L (826-1095) (Homo sapiens, UniProt Q8TEK3); assay: SPR binding of ENL fragments to immobilized Mocr-DOT1L (826-1095)
T4 construct: made in house; host or cells: Escherichia coli BL21 (DE3)
T4 sequence (Q8TEK3 826-1095): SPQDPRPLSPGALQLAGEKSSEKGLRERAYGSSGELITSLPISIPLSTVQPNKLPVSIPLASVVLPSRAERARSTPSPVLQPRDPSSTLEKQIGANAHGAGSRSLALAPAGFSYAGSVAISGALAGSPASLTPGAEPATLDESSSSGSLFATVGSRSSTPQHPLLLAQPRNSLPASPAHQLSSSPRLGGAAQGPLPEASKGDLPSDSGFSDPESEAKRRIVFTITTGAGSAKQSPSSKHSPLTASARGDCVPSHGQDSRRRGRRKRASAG
Experimental: FIG. 7 pertains to analyzing the C-terminal domain in ENL protein and its binding to DOT1L. A. Alignment of ENL and AF9 C-terminal domain. The predicted α-helices are marked with Helix 1 and Helix 2 and conserved residues are presented in grey. […] The kon, koff and Kd were calculated by simultaneous non-linear regression using 1:1 binding model and BIAevaluation 3.1 software. The experimental data are shown in black while the global fit analyses are shown in grey.
Surface Plasmon Resonance (SPR) binding studies—All SPR based experiments were performed on a BIAcore 2000 (BIAcore, GE Healthcare) instrument. Different tested DOT1L recombinant proteins were immobilized on a CM5 sensor chip by standard EDC/NHS coupling chemistry followed by ethanolamine deactivation of the surfaces. For immobilization of full length Flag-DOT1L protein, anti-Flag antibody (Sigma, Anti-FLAG M2) was immobilized on CM5 chip by the same amine coupling chemistry. HEK293 whole cells lysate with overexpressed Flag-DOT1L at 2.4 μg/l total protein concentration was injected over the Flag antibody surface, followed by injecting of AF9 and ENL in different concentrations. […] Binding parameters, kon, koff and Kd were calculated by simultaneous non-linear regression using BIAEvaluation software.

[8] = target: T5, MBP-ENL (489-559) (Homo sapiens, UniProt Q03111); assay: Isothermal titration calorimetry with MBP-ENL; format: binding; details: ITC, MBP-tagged ENL, 1:1 stoichiometry; read-out: KD to ENL protein
T5 construct: MBP-ENL (489-559) was dialysed extensively; made in house; host or cells: Escherichia coli BL21 (DE3)
T5 sequence (Q03111 489-559): T3 sequence (Q03111 489-559)
Experimental: Isothermal titration calorimetry—ITC was carried out using a Nano-ITC Micro Calorimeter (TA Instruments) at 20° C. MBP-ENL (489-559) was dialysed extensively against 50 mM Na2HPO4, (pH 7.5) and 100 mM NaCl, and 80 μM was used for titration studies of DOT1L 16-mer and 10-mer peptides, and 110 μM for DOT1L 7-mer titration. Tested peptides dissolved in the same buffer at 400 μM (DOT1L 16-mer and 10-mer) or 500 μM (DOT1L 7-mer) were tested by injecting 2 μl aliquots into the protein sample, at time intervals of […], to ensure that the titration peak returned to the baseline. The ITC data were analyzed by NanoAnalyze software package using a one site-binding model.

[9] = target: T6, AF9 (Homo sapiens, UniProt P42568); assay: Saturation Transfer Difference (STD) NMR; format: binding
T6 sequence (P42568 1-568): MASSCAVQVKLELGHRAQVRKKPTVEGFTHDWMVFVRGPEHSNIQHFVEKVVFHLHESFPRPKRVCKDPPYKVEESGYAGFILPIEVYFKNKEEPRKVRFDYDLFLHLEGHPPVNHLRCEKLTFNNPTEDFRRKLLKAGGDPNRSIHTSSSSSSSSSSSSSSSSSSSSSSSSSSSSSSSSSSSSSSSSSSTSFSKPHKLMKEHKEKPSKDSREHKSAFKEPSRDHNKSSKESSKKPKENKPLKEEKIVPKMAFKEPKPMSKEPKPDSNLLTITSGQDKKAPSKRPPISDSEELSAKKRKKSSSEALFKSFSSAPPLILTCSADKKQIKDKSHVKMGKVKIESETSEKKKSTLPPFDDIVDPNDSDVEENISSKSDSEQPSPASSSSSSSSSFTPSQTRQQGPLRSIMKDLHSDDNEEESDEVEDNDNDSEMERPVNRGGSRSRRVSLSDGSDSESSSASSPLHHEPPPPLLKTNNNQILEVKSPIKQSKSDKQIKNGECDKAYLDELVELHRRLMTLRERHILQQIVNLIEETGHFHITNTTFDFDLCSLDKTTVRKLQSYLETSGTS
Experimental: C) Globally fitted concentration series of 38 (100, 50, 25, 12.5 and 6.25 μM) binding to immobilized AF9 using OctetRed System (see Example 12).
To provide further validation of the hit selection in addition to the biochemical assays Saturation Transfer Difference (STD), NMR spectroscopy was used. NMR spectroscopy has been successfully utilized to detect and characterize the direct binding of small-molecule compounds to large biomolecules. This technique is also allowing characterization of the binding interactions and maps the ligand-protein contacts in the bound state, delineating which chemical moieties of the ligand molecule are key for molecular recognition by the protein (group epitope mapping, FIG. 20A). […] The direct binding of 38 was also confirmed with ThermoFluor biophysical binding assay. ThermoFluor exploits a well-known biophysical phenomenon where small changes in the intrinsic melting temperature of proteins in the presence of ligands are related to the equilibrium-binding constant. Compounds that interact with the native form of the protein will shift the equilibrium to the left, increasing the Tm, the temperature at which half the protein is unfolded. In the presence of compound 38, the Tm of MBP-AF9 protein increases in a dose-dependent manner, giving ΔTm of 1.2 degree in […] (FIG. 20B).

[10] = tested on: H3K79 methylation; assay: Global H3K79 methylation in MLL-AF9 transformed cells; format: cell-based, mouse; details: 6 days treatment of MLL-AF9 transformed cells
Text: FIG. 23 presents cell growth curves of A) MLL-AF9 and B) Hoxa9/Meis1 transformed mouse cells and C) adult LSKs after treatment with 38. D) H3K79 methylation after 6 days treatment with 38 and EPZ004777 DOT1L inhibitor (see, e.g., Daigle, et al., Cancer Cell 20, 53-65 (2011)).
This example involves the assessment of cellular effects of compound 38. […] Compound 38 inhibited growth of MLL-AF9 cells in a dose-dependent manner (FIG. 23A), with cell growth inhibition starting after 4 days of treatment. […] The hypothesis predicts that compounds that can block the DOT1L recruitment, but not its catalytic activity, will not affect normal hematopoiesis, as well as the global level of H3K79 methylation. To test this hypothesis, the toxicity of compound 38 was tested on purified LSK (lin-sca-1+ckit+) progenitors from adult wild type mice (FIG. 23C).

“recombinant AF4 protein: AF4 recombinant protein (749-775 residues) (LSPLRDTPPPQSLMVKITLDLLSRIPQ)” gave an IC50 [1] of 0.56 µM.
In the case of `CC[C@H](C)[C@H](NC(=O)[C@H](CCCCN)NC(=O)[C@@H](NC(=O)[C@H](CCSC)NC(=O)[C@H](CC(C)C)NC(C)=O)C(C)C)C(=O)N[C@H](C(=O)N[C@@H](CC(C)C)C(=O)N[C@@H](CC(=O)O)C(=O)N[C@@H](CC(C)C)C(=O)N[C@@H](CC(C)C)C(=O)N[C@@H](CO)C(=O)N[C@@H](CCCNC(=N)N)C(=O)N[C@H](C(=O)N1CCC[C@H]1C(N)=O)[C@@H](C)CC)[C@@H](C)O` [AF4 14 mer, reference compound] (Ac-LMVKITLDLLSRIP-NH2), the IC50 [2] is reported as 0.2 µM, the IC50 [3] is reported as 0.43 µM and the IC50 [1] is reported as 0.28 µM.
With `CCc1ccc(S(=O)(=O)N2c3ccccc3NC3=C(C(=O)CCC3)C2c2cccs2)cc1` (stereo not drawn) [Compound 48] the IC50 [4] was 24.8 ± 1.3 µM, the “half time in mouse liver microsome” value [5] was > 60 min and the IC50 [6] was 19.7 ± 4 µM.
“ENL H1: recombinant fragment of ENL protein corresponding to predicted helix 1 (GTYDKAYTDELVELHRRLMALRERNVLQQIVNLIEETGHFNVTNTTFDFDLFSLDE)” showed a Kd [7] of 2.8 µM.
`CC[C@H](C)[C@H](NC(=O)[C@@H]1CCCN1C(=O)[C@H](CC(C)C)NC(C)=O)C(=O)N[C@@H](CO)C(=O)N[C@H](C(=O)N1CCC[C@H]1C(=O)N[C@@H](CC(C)C)C(N)=O)[C@@H](C)CC` [DOT1L 7 mer, Ac-LPISIPL-NH2] (Ac-LPISIPL-NH2) gave a Kd [8] of 3.4 µM.
For `COc1cccc(Nc2nc(N3CCOCC3)c3c(n2)N(C)NC3)c1` [Compound 36], the “STD effects (direct binding to AF9)” value [9] was “strong STD effects”.
For `CC(C)N(CCCNC(=O)Nc1ccc(C(C)(C)C)cc1)C[C@H]1O[C@@H](n2ccc3c(N)ncnc32)[C@H](O)[C@@H]1O` [EPZ004777, reference compound], the “global H3K79 methylation level” value [10] was “decreased global level of H3K79 methylation”.
With `CCCc1ccc(S(=O)(=O)N2c3ccccc3NC3=C(C(=O)CCC3)C2c2ccco2)cc1` (stereo not drawn) [Compound 42] the IC50 [4] was 47.1 ± 2.3 µM, the “half time in mouse liver microsome” value [5] was 2 min and the IC50 [6] was 58.1 ± 12 µM.
“ENL H2: recombinant fragment of ENL protein corresponding to predicted helix 2 (EETGHFNVTNTTFDFDLFSLDETTVRKLQSCLEAVAT)” showed a Kd [7] of 14.6 µM.
